Measured values as given in PubChem BioAssay (NCI).
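96-well plates; 48 h exposure; 5 concentrations. Endpoints by linear interpolation between flanking doses. Not reached: highest tested concentration assigned. TGI: concentration producing complete growth inhibition.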

test system: 786-0 renal; assay: NCI-60 cell line screen, 48 h

Row | SMILES | TGI
1 | CC(=O)ONC(C(=O)C(C)(C)C)C(=O)C(C)(C)C | > 100 µM
2 | CC(=O)[C@@H](C)C(=O)N1C(=O)OC[C@@]12[C@@H]1CC[C@@H](C1)C2(C)C | > 100 µM
3 | C/C(=N/NC(N)=S)c1ccc[nH]1 | > 100 µM
4 | O=C1c2ccsc2C(=O)c2sc(CO)cc21 | 0.855 µM
5 | COc1cc(-c2nc3ccccn3c2/N=C/c2cc(Br)cc(Br)c2O)ccc1O | 35.5 µM
6 | CCCCCCCCCCCC(=O)OCC(C[As](=O)(O)O)OC(=O)CCCCCCCCCCC (stereo not given) | 26.7 µM
7 | CO/C=C(/C(=O)OC)c1ccccc1COc1cccc(C(F)(F)F)c1 | > 100 µM
8 | C1=Cc2cc3c(c4nccc(c24)N1)OCO3 | 21.2 µM

test system: ACHN renal; assay: NCI-60 cell line screen, 48 h

Row | SMILES | TGI
9 | CC(=O)ONC(C(=O)C(C)(C)C)C(=O)C(C)(C)C | > 100 µM
10 | CC(=O)[C@@H](C)C(=O)N1C(=O)OC[C@@]12[C@@H]1CC[C@@H](C1)C2(C)C | > 100 µM
11 | C/C(=N/NC(N)=S)c1ccc[nH]1 | > 100 µM
12 | O=C1c2ccsc2C(=O)c2sc(CO)cc21 | 0.238 µM
13 | COc1cc(-c2nc3ccccn3c2/N=C/c2cc(Br)cc(Br)c2O)ccc1O | > 100 µM
14 | CCCCCCCCCCCC(=O)OCC(C[As](=O)(O)O)OC(=O)CCCCCCCCCCC (stereo not given) | 5.04 µM
15 | CO/C=C(/C(=O)OC)c1ccccc1COc1cccc(C(F)(F)F)c1 | > 100 µM
16 | C1=Cc2cc3c(c4nccc(c24)N1)OCO3 | > 34.4 µM

test system: CCRF-CEM leukemia; assay: NCI-60 cell line screen, 48 h

Row | SMILES | TGI
17 | CC(=O)ONC(C(=O)C(C)(C)C)C(=O)C(C)(C)C | > 100 µM
18 | CC(=O)[C@@H](C)C(=O)N1C(=O)OC[C@@]12[C@@H]1CC[C@@H](C1)C2(C)C | > 100 µM
19 | C/C(=N/NC(N)=S)c1ccc[nH]1 | > 100 µM
20 | O=C1c2ccsc2C(=O)c2sc(CO)cc21 | 1.35 µM
21 | COc1cc(-c2nc3ccccn3c2/N=C/c2cc(Br)cc(Br)c2O)ccc1O | 45.6 µM
22 | CCCCCCCCCCCC(=O)OCC(C[As](=O)(O)O)OC(=O)CCCCCCCCCCC (stereo not given) | 30.8 µM
23 | CO/C=C(/C(=O)OC)c1ccccc1COc1cccc(C(F)(F)F)c1 | 27.3 µM
24 | C1=Cc2cc3c(c4nccc(c24)N1)OCO3 | > 100 µM

test system: COLO 205 colon; assay: NCI-60 cell line screen, 48 h

Row | SMILES | TGI
25 | CC(=O)ONC(C(=O)C(C)(C)C)C(=O)C(C)(C)C | > 100 µM
26 | CC(=O)[C@@H](C)C(=O)N1C(=O)OC[C@@]12[C@@H]1CC[C@@H](C1)C2(C)C | > 100 µM
27 | C/C(=N/NC(N)=S)c1ccc[nH]1 | > 100 µM
28 | O=C1c2ccsc2C(=O)c2sc(CO)cc21 | 1.53 µM
29 | COc1cc(-c2nc3ccccn3c2/N=C/c2cc(Br)cc(Br)c2O)ccc1O | 74.3 µM
30 | CCCCCCCCCCCC(=O)OCC(C[As](=O)(O)O)OC(=O)CCCCCCCCCCC (stereo not given) | 25.4 µM
31 | CO/C=C(/C(=O)OC)c1ccccc1COc1cccc(C(F)(F)F)c1 | 28.5 µM
32 | C1=Cc2cc3c(c4nccc(c24)N1)OCO3 | 23 µM

test system: EKVX NSCLC; assay: NCI-60 cell line screen, 48 h

Row | SMILES | TGI
33 | CC(=O)ONC(C(=O)C(C)(C)C)C(=O)C(C)(C)C | > 100 µM
34 | CC(=O)[C@@H](C)C(=O)N1C(=O)OC[C@@]12[C@@H]1CC[C@@H](C1)C2(C)C | > 100 µM
35 | C/C(=N/NC(N)=S)c1ccc[nH]1 | > 100 µM
36 | O=C1c2ccsc2C(=O)c2sc(CO)cc21 | 2.39 µM
37 | COc1cc(-c2nc3ccccn3c2/N=C/c2cc(Br)cc(Br)c2O)ccc1O | 54.5 µM
38 | CCCCCCCCCCCC(=O)OCC(C[As](=O)(O)O)OC(=O)CCCCCCCCCCC (stereo not given) | 21 µM
39 | CO/C=C(/C(=O)OC)c1ccccc1COc1cccc(C(F)(F)F)c1 | > 100 µM
40 | C1=Cc2cc3c(c4nccc(c24)N1)OCO3 | 34 µM

test system: HL-60(TB) leukemia; assay: NCI-60 cell line screen, 48 h

Row | SMILES | TGI
41 | CC(=O)ONC(C(=O)C(C)(C)C)C(=O)C(C)(C)C | > 100 µM
42 | CC(=O)[C@@H](C)C(=O)N1C(=O)OC[C@@]12[C@@H]1CC[C@@H](C1)C2(C)C | > 100 µM
43 | C/C(=N/NC(N)=S)c1ccc[nH]1 | > 100 µM
44 | O=C1c2ccsc2C(=O)c2sc(CO)cc21 | 3.72 µM
45 | COc1cc(-c2nc3ccccn3c2/N=C/c2cc(Br)cc(Br)c2O)ccc1O | 46.4 µM
46 | CCCCCCCCCCCC(=O)OCC(C[As](=O)(O)O)OC(=O)CCCCCCCCCCC (stereo not given) | > 25 µM
47 | CO/C=C(/C(=O)OC)c1ccccc1COc1cccc(C(F)(F)F)c1 | 3.99 µM
48 | C1=Cc2cc3c(c4nccc(c24)N1)OCO3 | > 100 µM

test system: HOP-62 NSCLC; assay: NCI-60 cell line screen, 48 h

Row | SMILES | TGI
49 | CC(=O)ONC(C(=O)C(C)(C)C)C(=O)C(C)(C)C | > 100 µM
50 | CC(=O)[C@@H](C)C(=O)N1C(=O)OC[C@@]12[C@@H]1CC[C@@H](C1)C2(C)C | > 100 µM
51 | C/C(=N/NC(N)=S)c1ccc[nH]1 | > 100 µM
52 | O=C1c2ccsc2C(=O)c2sc(CO)cc21 | 0.325 µM
53 | COc1cc(-c2nc3ccccn3c2/N=C/c2cc(Br)cc(Br)c2O)ccc1O | 52.5 µM
54 | CCCCCCCCCCCC(=O)OCC(C[As](=O)(O)O)OC(=O)CCCCCCCCCCC (stereo not given) | 78 µM
55 | CO/C=C(/C(=O)OC)c1ccccc1COc1cccc(C(F)(F)F)c1 | > 100 µM
56 | C1=Cc2cc3c(c4nccc(c24)N1)OCO3 | > 82.4 µM

test system: HS 578T breast; assay: NCI-60 cell line screen, 48 h

Row | SMILES | TGI
57 | CC(=O)ONC(C(=O)C(C)(C)C)C(=O)C(C)(C)C | > 100 µM
58 | CC(=O)[C@@H](C)C(=O)N1C(=O)OC[C@@]12[C@@H]1CC[C@@H](C1)C2(C)C | > 100 µM
59 | C/C(=N/NC(N)=S)c1ccc[nH]1 | > 100 µM
60 | O=C1c2ccsc2C(=O)c2sc(CO)cc21 | 0.191 µM
61 | COc1cc(-c2nc3ccccn3c2/N=C/c2cc(Br)cc(Br)c2O)ccc1O | 83.8 µM
62 | CCCCCCCCCCCC(=O)OCC(C[As](=O)(O)O)OC(=O)CCCCCCCCCCC (stereo not given) | 13.3 µM
63 | CO/C=C(/C(=O)OC)c1ccccc1COc1cccc(C(F)(F)F)c1 | > 100 µM
64 | C1=Cc2cc3c(c4nccc(c24)N1)OCO3 | 32.5 µM

test system: KM12 colon; assay: NCI-60 cell line screen, 48 h

Row | SMILES | TGI
65 | CC(=O)ONC(C(=O)C(C)(C)C)C(=O)C(C)(C)C | > 100 µM
66 | CC(=O)[C@@H](C)C(=O)N1C(=O)OC[C@@]12[C@@H]1CC[C@@H](C1)C2(C)C | > 100 µM
67 | C/C(=N/NC(N)=S)c1ccc[nH]1 | > 100 µM
68 | O=C1c2ccsc2C(=O)c2sc(CO)cc21 | 3.08 µM
69 | COc1cc(-c2nc3ccccn3c2/N=C/c2cc(Br)cc(Br)c2O)ccc1O | 67.2 µM
70 | CCCCCCCCCCCC(=O)OCC(C[As](=O)(O)O)OC(=O)CCCCCCCCCCC (stereo not given) | 21.6 µM
71 | CO/C=C(/C(=O)OC)c1ccccc1COc1cccc(C(F)(F)F)c1 | > 100 µM
72 | C1=Cc2cc3c(c4nccc(c24)N1)OCO3 | 23.6 µM

test system: LOX IMVI melanoma; assay: NCI-60 cell line screen, 48 h

Row | SMILES | TGI
73 | CC(=O)ONC(C(=O)C(C)(C)C)C(=O)C(C)(C)C | > 100 µM
74 | CC(=O)[C@@H](C)C(=O)N1C(=O)OC[C@@]12[C@@H]1CC[C@@H](C1)C2(C)C | > 100 µM
75 | C/C(=N/NC(N)=S)c1ccc[nH]1 | > 100 µM
76 | O=C1c2ccsc2C(=O)c2sc(CO)cc21 | 0.0491 µM
77 | COc1cc(-c2nc3ccccn3c2/N=C/c2cc(Br)cc(Br)c2O)ccc1O | 64.9 µM
78 | CCCCCCCCCCCC(=O)OCC(C[As](=O)(O)O)OC(=O)CCCCCCCCCCC (stereo not given) | 18.3 µM
79 | CO/C=C(/C(=O)OC)c1ccccc1COc1cccc(C(F)(F)F)c1 | 13.6 µM
80 | C1=Cc2cc3c(c4nccc(c24)N1)OCO3 | > 61.1 µM
